Among the data in patent US10273234B2, “Compounds that are S1P modulating agents and/or ATX modulating agents” (BIOGEN MA INC., priority 2012, dated 2019) are IC50 values, retold here.

The target of this assay is human S1P4 (Homo sapiens (Human), UniProt O95977). The experiment in a line: Calcium mobilization (calcium flux) assay, antagonist format, S1P4. It is filed as cell-based. The conditions noted are these: recombinant CHEM cells expressing human S1P4; FLIPR Calcium 4 dye; stimulated with EC80 of reference agonist. The protocol:
Compounds that are not specific for a particular S1P receptor can cause undesirable side effects. Accordingly, compounds are tested to identify those that are specific. Accordingly, the test compounds are tested in a calcium mobilization assay/S1P receptor activity assay. The procedure is essentially as described in Davis et al. (2005) Journal of Biological Chemistry, vol. 280, pp. 9833-9841, which is incorporated by reference in its entirety with the following modifications. Calcium mobilization assays are performed in recombinant CHEM cells expressing human S1P1, S1P2, S1P3, S1P4, or S1P5 purchased from Millipore (Billerica, Mass.). To detect free intracellular calcium, S1P1, S1P2, S1P3, S1P4, or S1P5 cells are loaded with FLIPR Calcium 4 dye from Molecular Devices (Sunnyvale, Calif.). Cells are imaged for calcium mobilization using a FLIPR^TETRA equipped with a 96-well dispense head. […]
Assay was read for 180 seconds using the FLIPR^TETRA (This assay run added sample compounds and reference agonist to respective wells). […]
Using the EC80 values determined during the agonist assay, stimulated all pre-incubated sample compound and reference antagonist (if applicable) wells with EC80 of reference agonist. Read for 180 seconds using the FLIPR^TETRA (This assay added reference agonist to respective wells—then fluorescence measurements were collected to calculate percentage inhibition values).

Molecules are shown by their SMILES.

human S1P4, sequence (O95977 whole entry): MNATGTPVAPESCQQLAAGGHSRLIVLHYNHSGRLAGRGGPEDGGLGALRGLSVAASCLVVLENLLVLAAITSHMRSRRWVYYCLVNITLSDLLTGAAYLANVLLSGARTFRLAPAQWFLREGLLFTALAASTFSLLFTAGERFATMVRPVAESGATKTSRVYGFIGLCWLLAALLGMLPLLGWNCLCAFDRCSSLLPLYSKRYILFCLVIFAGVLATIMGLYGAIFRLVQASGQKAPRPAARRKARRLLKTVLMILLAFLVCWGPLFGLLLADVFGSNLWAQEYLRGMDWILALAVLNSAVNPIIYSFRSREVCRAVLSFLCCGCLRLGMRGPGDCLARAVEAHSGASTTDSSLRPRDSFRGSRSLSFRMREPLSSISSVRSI

For the compound `CC(C)(C)[C@H]1CC[C@H](Oc2cccc3c(CN4CCC(C(=O)O)CC4)cccc23)CC1` [Example 30, 1-((5-((trans-4-(tert-butyl)cyclohexyl)oxy)naphthalen-1-yl)methyl)piperidine-4-carboxylic acid], the IC50 is at most 0.25 µM.
